For one series, the system named is MOLM-16 tumor cell. Put plainly: Tumor growth inhibition by AZD1208 in xenograft, lifespan TGI model (non-cycle-specific, Emax). In kind it is in vivo, mice. As to the method: (§1) Data for this case study was provided by AstraZeneca. For the purpose of this case study we will set time according to when the first dose of AZD1208 was administered, which we count as day 1. We began with a compartmental PK analysis after a single oral administration of AZD1208 at 3, 10 and 30 mg/kg and found it well described using a one-compartment PK model with first order absorption as shown in Figure 9A.
After establishing the PK model, we fit the TGI data using the lifespan TGI model. Since AZD1208 is a pan-Pim kinase inhibitor that promotes apoptosis at any stages of cell cycle, the data were analyzed using the non-cycle-specific model. […] In order to adapt the lifespan TGI model to account for only exponential growth we simply set the tumor threshold, wth, to a very large value well beyond the observed values of tumor size. Another unique feature of this dataset is the inclusion of saturating doses. To accommodate the dose ranges we replaced the drug potency constant, k2, in eq. 18 with the Emax model. The process of fitting was the same as for the previous studies, however, in this study the control data were very sparse and the doubling time, T, could not be estimated. In order to proceed with the analysis we set T = 3 days based on the doubling time reported by the commercial vendor of the MOLM-16 tumor cell used in the study, which was similar to the doubling reported the original study when the cells were initially collected. […] The remaining parameters were estimated with high precision and are well within biologically feasible ranges (see Table 6).

A short description of series [1]: Pharmacokinetic study of AZD1208, single oral administration, one-compartment model. In kind it is in vivo, mice. The settings on record: single oral 3, 10, 30 mg/kg. On the procedure: For pharmacokinetic study of AZ968, CD1 mice were given single i.p. injection of AZ968 at 10, 20 or 30 mg/kg with 3 mice per dose group. Blood samples were collected via cardiac puncture. Total plasma concentrations of AZ968 were determined by LC/MS/MS method. Same procedure was used for the pharmacokinetic study of AZD1208, except AZD1208 was administered orally (p.o.) at 3, 10 or 30 mg/kg doses as outlined in the original study.
as §1

Series [2] has as its system tumors derived from the HCT116 human colon carcinoma cell line. Briefly: Tumor growth inhibition by paclitaxel in xenograft mice, lifespan TGI model with cycle-specific drug effect. In kind it is in vivo. The settings on record: for TA (duration of apoptosis): 30 mg/kg i.v. every 4 days from day 8, grid search, then fixed, data digitized from ref 11; for Emax (maximum effect): fixed to 1 due to lack of escalating doses. From the text: (§2) Data used in Case Study 1 was obtained from mouse xenograft study reported by Simeoni and colleague. […] Data from the study was digitized using Graph Digitizer 2.0 (Nick's Production).

For series [3] the following is noted: mouse, in vivo, iv, 30 mg/kg.
Description: as §2

On the set-up of series [4]: method as in PMID 14871843. The conditions noted are these: two-compartment model, parameter fixed, cited from earlier work.

Values after ≈ are worked out from the molar mass of the structure shown. Marks after values point to notes of the source that are not given here.

For orientation: EC50 means the midpoint of the concentration-response curve. A low value points to a more potent agent. Turning to `N[C@@H]1CCCN(c2c(/C=C3\SC(=O)NC3=O)cccc2-c2ccccc2)C1` [AZD1208], in the series with MOLM-16 tumor cell (0.3, 1, 3, 10, 30 mg/kg orally, parameter was fixed), the “TA (duration of apoptosis)” value was 1.92 ^a days. Moreover, the Emax with MOLM-16 tumor cell (Emax model replacing k2 in non-cycle-specific model) was found to be 0.159. Also, the 50% effective concentration (EC50) with MOLM-16 tumor cell (plasma concentration, Emax model, non-cycle-specific model) was 0.182 µg/mL (≈ 0.48 µM). In series [1], the V/F is listed as 4.86 L/kg; the “elimination rate constant, kel” value is reported as “same value as ka”; the ka came out at 5.52 day⁻¹.

On to `CC(=O)O[C@H]1C(=O)[C@@]2(C)[C@H]([C@H](OC(=O)c3ccccc3)[C@]3(O)C[C@H](OC(=O)[C@H](O)[C@@H](NC(=O)c4ccccc4)c4ccccc4)C(C)=C1C3(C)C)[C@]1(OC(C)=O)CO[C@@H]1C[C@@H]2O` [paclitaxel], for which, in series [2], the “TA (duration of apoptosis)” value is 0.536 days and the “Emax (maximum effect)” value turned out to be 1. In series [2] (listed as Paclitaxel), the “TA (duration of apoptosis)” value is recorded as 0.536 ^a days and the “Emax (maximum effect)” value is reported as 1 ^a. Also, the peak plasma concentration in series [3] is on record as 37040 ng/mL. Moreover, in series [4] (i.v. paclitaxel), the V is 0.81 L/kg. In series [4], the k12 is 0.006 h⁻¹, the k21 was 0.0838 h⁻¹ and the kel was 0.868 h⁻¹.

The values above are taken from article PMC4204849, “Lifespan Based Pharmacokinetic-Pharmacodynamic Model of Tumor Growth Inhibition by Anticancer Therapeutics” (PLoS ONE, 2014).
